Data reported in ChEMBL document CHEMBL1139852, “A distinctive structural twist in the aminoimidazole alkaloids from a calcareous marine sponge: isolation and characterization of leucosolenamines A and B” (J Nat Prod, 2007).

Tests used:
Assay type in all cases: cell-based; call rule not given here
[1] = Selective cytotoxicity for mouse C38 cells over CFU-GM cells at 7.8 ug/disk; settings: mc-38
MC-38 [2] = assay: Cytotoxicity against mouse C38 cells at 7.8 ug/disk
[3] = Cytotoxicity against mouse CFU-GM cells at 7.8 ug/disk
[4] = Selective cytotoxicity for mouse C38 cells over CFU-GM cells at 180 ug/disk; settings: mc-38
MC-38 [5] = assay: Cytotoxicity against mouse C38 cells at 180 ug/disk
[6] = Cytotoxicity against mouse CFU-GM cells at 180 ug/disk

Row | Compound | inhibition zone (IZ) [1] [mm] | inhibition zone (IZ) (MC-38 [2]) [mm] | inhibition zone (IZ) [3] [mm] | inhibition zone (IZ) [4] [mm] | inhibition zone (IZ) (MC-38 [5]) [mm] | inhibition zone (IZ) [6] [mm] | Activity (MC-38 [5]) | Activity [6]
1 | CO[C@@H](C(=O)N[C@H]1CCCCNC1=O)[C@H](O)[C@@H](O)[C@H](O)/C=C/C(C)C [BENGAMIDE E] | 4.5 | 21 | 16.5 |  |  |  |  | 
2 | Cn1c(/N=C2\NC(=N)N=C2Cc2ccc3c(c2)OCO3)c(N)c(=O)n(C)c1=O [LEUCOSOLENAMINE A] |  |  |  | 10.5 | 10.5 | 0 |  | 
3 | Cc1cn([C@H]2C[C@H](O)[C@@H](CO)O2)c(=O)[nH]c1=O [DOXRIBTIMINE] |  |  |  | 0 |  |  | Not Active | Not Active
